Test results published in article PMC6199744, “Development of Chemical Proteomics for the Folateome and Analysis of the Kinetoplastid Folateome” (ACS Infectious Diseases, 2018).
Where two headings read alike, the source gives them in different places.

What was measured:
Format in all cases: binding
[1] = molecular target: T1, HeLa cell extract proteins (Homo sapiens, UniProt P10515)
T1 construct: endogenous in cells; host or cells: HeLa cell extract
T1 sequence (P10515 87-647): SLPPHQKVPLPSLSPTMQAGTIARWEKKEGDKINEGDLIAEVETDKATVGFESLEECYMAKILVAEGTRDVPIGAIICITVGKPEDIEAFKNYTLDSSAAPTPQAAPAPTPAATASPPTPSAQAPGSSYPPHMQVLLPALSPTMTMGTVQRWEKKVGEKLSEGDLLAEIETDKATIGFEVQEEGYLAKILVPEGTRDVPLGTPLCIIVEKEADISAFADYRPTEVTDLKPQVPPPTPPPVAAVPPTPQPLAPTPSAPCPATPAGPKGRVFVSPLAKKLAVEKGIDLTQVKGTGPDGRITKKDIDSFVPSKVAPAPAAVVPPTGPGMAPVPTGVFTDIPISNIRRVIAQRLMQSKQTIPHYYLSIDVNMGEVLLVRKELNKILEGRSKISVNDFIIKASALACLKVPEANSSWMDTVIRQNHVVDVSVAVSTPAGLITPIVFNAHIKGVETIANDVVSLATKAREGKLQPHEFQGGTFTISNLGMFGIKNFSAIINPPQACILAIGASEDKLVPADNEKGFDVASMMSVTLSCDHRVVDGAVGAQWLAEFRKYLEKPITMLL

[2] = molecular target: T2, HeLa cell extract proteins (Homo sapiens, UniProt P13807)
T2 construct: endogenous in cells; host or cells: HeLa cell extract
T2 sequence (P13807 1-737): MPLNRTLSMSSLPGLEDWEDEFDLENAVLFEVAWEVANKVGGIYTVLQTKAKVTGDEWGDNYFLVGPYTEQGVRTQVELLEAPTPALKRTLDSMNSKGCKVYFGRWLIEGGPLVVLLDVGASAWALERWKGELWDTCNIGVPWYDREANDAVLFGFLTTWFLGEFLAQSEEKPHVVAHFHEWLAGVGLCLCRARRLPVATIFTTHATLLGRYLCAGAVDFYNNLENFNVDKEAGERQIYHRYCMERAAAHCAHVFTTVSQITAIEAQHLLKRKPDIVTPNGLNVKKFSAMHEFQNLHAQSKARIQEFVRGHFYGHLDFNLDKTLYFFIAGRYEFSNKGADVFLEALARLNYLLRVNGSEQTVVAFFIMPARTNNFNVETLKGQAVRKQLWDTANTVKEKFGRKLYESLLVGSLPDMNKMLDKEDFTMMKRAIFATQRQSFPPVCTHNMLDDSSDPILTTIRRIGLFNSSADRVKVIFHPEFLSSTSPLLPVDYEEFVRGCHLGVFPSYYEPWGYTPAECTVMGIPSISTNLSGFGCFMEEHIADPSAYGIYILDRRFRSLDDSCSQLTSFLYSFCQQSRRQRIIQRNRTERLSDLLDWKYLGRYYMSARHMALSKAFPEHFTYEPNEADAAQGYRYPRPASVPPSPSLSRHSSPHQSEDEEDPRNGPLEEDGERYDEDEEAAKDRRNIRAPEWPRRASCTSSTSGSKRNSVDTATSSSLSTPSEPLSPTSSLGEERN

[3] = molecular target: T3, HeLa cell extract proteins (Homo sapiens, UniProt P47712)
T3 construct: endogenous in cells; host or cells: HeLa cell extract
T3 sequence (P47712 1-749): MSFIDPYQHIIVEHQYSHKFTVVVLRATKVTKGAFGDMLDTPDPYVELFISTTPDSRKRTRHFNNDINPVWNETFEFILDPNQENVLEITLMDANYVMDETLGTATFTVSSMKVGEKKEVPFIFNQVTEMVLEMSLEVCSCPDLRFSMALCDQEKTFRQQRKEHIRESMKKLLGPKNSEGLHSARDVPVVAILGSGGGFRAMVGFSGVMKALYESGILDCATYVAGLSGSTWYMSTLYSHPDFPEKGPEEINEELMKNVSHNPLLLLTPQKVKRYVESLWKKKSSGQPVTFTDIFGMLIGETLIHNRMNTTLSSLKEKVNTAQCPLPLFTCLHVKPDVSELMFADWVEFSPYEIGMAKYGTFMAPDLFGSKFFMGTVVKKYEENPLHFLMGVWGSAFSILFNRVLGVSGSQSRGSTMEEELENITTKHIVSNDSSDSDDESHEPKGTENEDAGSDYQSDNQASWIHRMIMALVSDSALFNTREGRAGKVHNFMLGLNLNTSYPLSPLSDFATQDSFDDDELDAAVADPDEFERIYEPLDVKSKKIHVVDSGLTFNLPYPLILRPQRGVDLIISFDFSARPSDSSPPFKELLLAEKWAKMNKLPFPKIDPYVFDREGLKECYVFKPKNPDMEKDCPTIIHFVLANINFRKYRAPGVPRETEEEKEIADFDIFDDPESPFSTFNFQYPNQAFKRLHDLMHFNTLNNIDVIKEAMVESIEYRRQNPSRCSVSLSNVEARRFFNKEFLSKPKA

[4] = molecular target: T4, HeLa cell extract proteins (Homo sapiens, UniProt P63151)
T4 construct: endogenous in cells; host or cells: HeLa cell extract
T4 sequence (P63151 1-447): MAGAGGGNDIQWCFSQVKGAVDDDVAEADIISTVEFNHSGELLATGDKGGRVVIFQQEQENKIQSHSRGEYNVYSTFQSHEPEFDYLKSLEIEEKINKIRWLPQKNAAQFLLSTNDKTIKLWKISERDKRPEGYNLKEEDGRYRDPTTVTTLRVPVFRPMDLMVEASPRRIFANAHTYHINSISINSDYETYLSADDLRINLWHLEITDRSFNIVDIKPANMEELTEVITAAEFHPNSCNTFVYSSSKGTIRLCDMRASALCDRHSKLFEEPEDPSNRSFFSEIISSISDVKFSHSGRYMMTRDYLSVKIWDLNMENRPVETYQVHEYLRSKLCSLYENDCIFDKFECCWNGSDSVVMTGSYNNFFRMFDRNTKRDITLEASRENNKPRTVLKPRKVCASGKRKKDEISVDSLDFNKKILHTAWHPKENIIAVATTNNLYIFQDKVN

[5] = molecular target: T5, HeLa cell extract proteins (Homo sapiens, UniProt Q13347)
T5 construct: endogenous in cells; host or cells: HeLa cell extract

[6] = molecular target: T6, HeLa cell extract proteins (Homo sapiens, UniProt Q8TEM1)
T6 construct: endogenous in cells; host or cells: HeLa cell extract

[7] = HeLa, protein DLAT (DIHYDROLIPOYLLYSINE-RESIDUE ACETYLTRANSFERASE COMPONENT OF PYRUVATE DEHYDROGENASE COMPLEX, MITOCHONDRIAL)

T6 sequence (Q8TEM1 27-1887): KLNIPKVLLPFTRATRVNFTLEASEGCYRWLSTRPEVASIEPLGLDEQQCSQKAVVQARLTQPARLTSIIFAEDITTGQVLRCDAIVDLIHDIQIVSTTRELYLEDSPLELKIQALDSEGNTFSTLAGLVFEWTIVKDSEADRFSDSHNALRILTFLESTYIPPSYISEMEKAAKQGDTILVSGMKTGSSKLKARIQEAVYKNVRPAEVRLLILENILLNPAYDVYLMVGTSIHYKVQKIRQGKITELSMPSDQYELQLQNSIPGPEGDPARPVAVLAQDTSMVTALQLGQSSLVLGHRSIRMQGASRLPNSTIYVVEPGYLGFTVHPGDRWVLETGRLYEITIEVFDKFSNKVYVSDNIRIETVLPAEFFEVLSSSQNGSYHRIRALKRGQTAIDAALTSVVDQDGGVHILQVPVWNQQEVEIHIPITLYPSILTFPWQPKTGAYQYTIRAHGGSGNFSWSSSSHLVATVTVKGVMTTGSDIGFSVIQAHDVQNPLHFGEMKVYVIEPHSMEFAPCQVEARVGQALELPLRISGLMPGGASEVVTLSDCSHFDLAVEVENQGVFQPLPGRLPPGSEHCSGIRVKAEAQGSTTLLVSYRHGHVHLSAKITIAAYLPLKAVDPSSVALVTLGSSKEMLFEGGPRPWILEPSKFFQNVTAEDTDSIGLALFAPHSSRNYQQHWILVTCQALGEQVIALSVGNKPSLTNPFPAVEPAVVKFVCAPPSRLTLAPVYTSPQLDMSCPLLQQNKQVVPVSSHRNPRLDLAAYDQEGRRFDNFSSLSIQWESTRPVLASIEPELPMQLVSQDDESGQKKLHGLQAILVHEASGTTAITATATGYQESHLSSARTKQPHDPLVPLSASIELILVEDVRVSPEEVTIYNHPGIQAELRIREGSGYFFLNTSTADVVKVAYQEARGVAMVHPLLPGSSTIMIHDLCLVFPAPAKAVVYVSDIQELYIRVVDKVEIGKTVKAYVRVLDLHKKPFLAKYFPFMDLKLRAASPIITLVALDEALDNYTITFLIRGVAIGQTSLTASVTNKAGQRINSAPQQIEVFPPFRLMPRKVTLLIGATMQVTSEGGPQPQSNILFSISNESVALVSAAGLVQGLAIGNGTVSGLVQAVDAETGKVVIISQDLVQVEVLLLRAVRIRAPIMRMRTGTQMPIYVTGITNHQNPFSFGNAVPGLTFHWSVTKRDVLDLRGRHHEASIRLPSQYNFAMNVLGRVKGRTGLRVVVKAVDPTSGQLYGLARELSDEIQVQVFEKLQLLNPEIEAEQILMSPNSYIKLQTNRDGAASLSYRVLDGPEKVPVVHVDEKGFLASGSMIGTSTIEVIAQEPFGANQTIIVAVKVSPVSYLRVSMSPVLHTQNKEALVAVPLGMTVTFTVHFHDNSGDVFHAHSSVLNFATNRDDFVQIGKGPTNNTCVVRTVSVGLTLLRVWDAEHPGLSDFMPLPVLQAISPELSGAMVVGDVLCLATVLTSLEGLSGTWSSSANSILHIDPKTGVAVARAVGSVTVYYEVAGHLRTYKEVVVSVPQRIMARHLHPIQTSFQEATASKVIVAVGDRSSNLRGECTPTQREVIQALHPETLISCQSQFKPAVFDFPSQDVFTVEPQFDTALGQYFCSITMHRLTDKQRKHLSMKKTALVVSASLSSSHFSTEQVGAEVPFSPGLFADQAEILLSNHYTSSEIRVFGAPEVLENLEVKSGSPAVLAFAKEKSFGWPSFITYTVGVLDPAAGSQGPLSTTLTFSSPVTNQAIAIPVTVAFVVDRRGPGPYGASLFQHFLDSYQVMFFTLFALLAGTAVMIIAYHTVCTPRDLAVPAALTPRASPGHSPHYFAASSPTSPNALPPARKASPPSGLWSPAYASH
T5 sequence (Q13347 whole entry): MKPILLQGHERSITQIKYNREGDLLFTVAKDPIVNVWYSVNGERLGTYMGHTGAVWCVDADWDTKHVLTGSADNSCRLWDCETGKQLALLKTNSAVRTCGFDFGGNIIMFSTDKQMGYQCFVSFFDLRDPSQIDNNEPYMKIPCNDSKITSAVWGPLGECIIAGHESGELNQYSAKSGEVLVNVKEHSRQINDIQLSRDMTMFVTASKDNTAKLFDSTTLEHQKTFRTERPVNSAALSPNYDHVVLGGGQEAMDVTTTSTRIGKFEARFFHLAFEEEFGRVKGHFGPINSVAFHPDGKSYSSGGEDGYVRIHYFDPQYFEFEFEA

SMILES	fold changes relative to vehicle control ([2]; HeLa, protein GYS1)	fold changes relative to vehicle control ([3]; HeLa, protein PLA2G4A)	fold changes relative to vehicle control ([4]; HeLa, captured protein PPP2R2A)	fold changes relative to vehicle control ([5]; HeLa, captured protein EIF3I)	fold changes relative to vehicle control ([6]; HeLa, captured protein NUP210)	fold changes relative to vehicle control ([1]; protein DLAT, HeLa)	fold changes relative to vehicle control ([2]; captured protein GYS1, HeLa)	fold changes relative to vehicle control ([3]; protein PLA2G4A, HeLa)	fold changes relative to vehicle control ([4]; protein PPP2R2A, HeLa)	fold changes relative to vehicle control ([5]; protein EIF3I, HeLa)	fold changes relative to vehicle control ([6]; captured protein NUP210, HeLa)	also measured
Nc1nc2c(c(=O)[nH]1)N(C=O)C(CNc1ccc(C(=O)N[C@@H](CCC(=O)O)C(=O)O)cc1)CN2 (stereo partly drawn) [LEU, leucovorin]	0.97	0.94	0.97	1.06	0.97							fold changes relative to vehicle control ([1]; HeLa, protein DLAT ([…]-RESIDUE ACETYLT[…] OF PYRUVATE DEH[…], MITOCHONDRIAL)): 1.05
Nc1nc2[nH]cc(CCc3ccc(C(=O)N[C@@H](CCC(=O)O)C(=O)O)cc3)c2c(=O)[nH]1 [PTX, pemetrexed]												fold changes relative to vehicle control [1]: 0.96; fold changes relative to vehicle control [2]: 0.94; fold changes relative to vehicle control [3]: 1.13; fold changes relative to vehicle control [4]: 0.97; fold changes relative to vehicle control [5]: 1.06; fold changes relative to vehicle control [6]: 0.99
CCCCCCOc1ccc(Cc2cnc(N)nc2N)cc1 [compound 1]						0.98	0.9	1	0.92	0.96	0.74	
CCCCCCOc1cccc(Cc2cnc(N)nc2N)c1 [compound 2]						0.39	0.84	1.72	1.05	0.91	0.98	
Nc1nc2cccc(-c3ccccc3)c2n1Cc1ccc(Cl)c(Cl)c1 [compound 3]						1.1	0.93	0.91	0.99	1.02	0.86	
NCCOCCOCC(=O)Nc1nc2ncc(CNc3ccc(C(=O)NC(CCC(=O)O)C(=O)O)cc3)nc2c(=O)[nH]1 (stereo not drawn) [compound 6]	0.98	1.18	0.97	0.98	1.07							fold changes relative to vehicle control [1, 7]: 0.92
NCCCNc1ccc(C(=O)NC(CCC(=O)O)C(=O)O)cc1 (stereo not drawn) [compound 7]	0.98	0.88	0.87	0.97	1.05							fold changes relative to vehicle control [1, 7]: 0.97
